Laboratory results as given in patent US20240374764A1, “COMBINATION RADIOTHERAPY” (Telix Pharmaceuticals (Innovations) Pty Ltd., priority 2021, published 2024).

Experiments:
SK-RC-52 xenografts [1] = test: In vivo efficacy in SK-RC-52 metastatic renal cell carcinoma xenograft model; parameters: species or system Female BALB/c nude mice; settings: number of mice (% of group, n=4) at conclusion of study; 177Lu antibody 6 MBq single i.v. dose day 0; M3814 50 mg/kg oral daily where combined
Description: Tumour growth curves were monitored in mice for up to 6 months or ethical limits.

SK-RC-52 xenografts [2] = settings: mouse, in vivo
Description: Female BALB/c nude mice with established SK-RC-52 xenografts (approx. 100 mm^3) were used for this study. Mice were split into one of the following 3 groups: • Vehicle control (oral) n=4; • ^177Lu-anti-CAIX antibody only (DOTA-GmAb, as described herein; 162 μCi/6 MBq) n=4; • 50 mg/kg M3814 DNA-PKi orally dosed and ^177Lu-anti-CAIX antibody (162 μCi/6 MBq) n=4.
Animals were treated as follows: • Day −14: injection of 60 female mice with RK-RC-52 metastatic RCC cells in matrigel; • Day 0: ^177Lu-anti-CAIX antibody i.v. administration, single dose once only • Day 1-7: daily oral dosing of vehicle/M3814 @ 50 mg/kg.
SPECT/MRI imaging was conducted at days 3 and 6 to determine biodistribution.

DNA-PK = DNA-PK (Homo sapiens, UniProt P78527); settings: as demonstrated by crystallographic and enzyme kinetics studies; cited from earlier work
[3] = previous clinical studies, cited from earlier work

^177Lu-anti-CAIX antibody: 177Lu-labelled DOTA conjugate of the anti-CAIX antibody GmAb (girentuximab)
Complete Remission (SK-RC-52 xenografts [1]): 1 (25%) | Progressive Disease (SK-RC-52 xenografts [1]): 3 (75%) | SPECT imaging: delivery of radiation to the tumour (SK-RC-52 xenografts [2]): specifically delivers cytotoxic radiation to the tumour over a prolonged period

COc1ccc([C@@H](O)c2cc(-c3ncnc4cc(N5CCOCC5)ccc34)c(F)cc2Cl)nn1 [M3814, (S)-[2-chloro-4-fluoro-5-(7-morpholin-4-yl-quinazolin-4-yl)-phenyl]-(6-methoxypyridazin-3-yl)-methanol]
inhibition of DNA-PK (mode, potency, selectivity) (DNA-PK): potent and selective ATP-competitive inhibitor of DNA-PK

^177Lu-girentuximab: chimeric monoclonal antibody girentuximab (cG250, TLX250) specific for CAIX, radiolabelled with lutetium-177 via a DOTA linker
MTD ([3]; single agent): 2405 MBq/m^2 | tolerability of follow on dosing at 75% of the previous dose [3]: well tolerated
